Data taken from article PMC5063960, “N-acetylglucosamine sensing by a GCN5-related N-acetyltransferase induces transcription via chromatin histone acetylation in fungi” (Nature Communications, 2016).

Biological target: T1, Ngs1 (Candida albicans, UniProt A0A1D8PRM0)
T1 construct: full length (963 aa), N-terminal 3xFLAG tag, expressed from NGS1 promoter in C. albicans ngs1 mutant; protein extract
Experiment: GlcNAc-agarose pull-down from protein extract, competition with free GlcNAc, anti-FLAG Western blot
Type: binding
Conditions: 100 mM free GlcNAc as competitor; 4 °C overnight; GH3 homology domain site

T1 sequence (A0A1D8PRM0 entry or part of it): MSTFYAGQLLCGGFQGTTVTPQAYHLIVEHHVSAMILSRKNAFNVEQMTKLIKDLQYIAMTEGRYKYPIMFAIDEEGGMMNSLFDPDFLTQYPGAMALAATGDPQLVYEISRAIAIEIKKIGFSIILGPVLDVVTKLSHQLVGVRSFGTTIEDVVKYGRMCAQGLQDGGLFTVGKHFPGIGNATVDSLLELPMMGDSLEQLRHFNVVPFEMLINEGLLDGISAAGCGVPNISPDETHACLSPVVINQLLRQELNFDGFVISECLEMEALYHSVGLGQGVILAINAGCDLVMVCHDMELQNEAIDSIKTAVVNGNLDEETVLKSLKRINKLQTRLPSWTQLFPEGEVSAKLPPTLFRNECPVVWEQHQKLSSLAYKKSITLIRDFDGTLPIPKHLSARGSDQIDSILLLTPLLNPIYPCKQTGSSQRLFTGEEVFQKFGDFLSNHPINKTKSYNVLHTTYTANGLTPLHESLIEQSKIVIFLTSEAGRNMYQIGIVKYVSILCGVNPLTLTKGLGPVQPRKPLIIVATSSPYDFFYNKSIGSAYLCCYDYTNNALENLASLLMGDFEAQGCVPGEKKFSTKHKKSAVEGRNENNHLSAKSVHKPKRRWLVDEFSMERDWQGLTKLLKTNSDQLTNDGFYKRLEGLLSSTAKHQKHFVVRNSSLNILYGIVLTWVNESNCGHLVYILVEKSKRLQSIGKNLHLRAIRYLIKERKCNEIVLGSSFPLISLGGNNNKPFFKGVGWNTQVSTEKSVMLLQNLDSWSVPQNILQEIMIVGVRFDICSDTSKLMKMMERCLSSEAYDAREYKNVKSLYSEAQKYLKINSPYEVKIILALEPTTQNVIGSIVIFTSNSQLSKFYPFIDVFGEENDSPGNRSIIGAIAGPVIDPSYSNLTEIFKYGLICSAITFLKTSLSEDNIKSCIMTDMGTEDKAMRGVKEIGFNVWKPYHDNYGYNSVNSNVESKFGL

CC(=O)N[C@H]1C(O)O[C@H](CO)[C@@H](O)[C@@H]1O (stereo partly shown) [GlcNAc]
GlcNAc-agarose pull-down from protein extract, competition with free GlcNAc, ant: The binding of GlcNAc-agarose with FLAG-Ngs1 was greatly reduced when free GlcNAc was added
